Test results from patent US11958842B2, “Substituted phenazines and methods of treating cancer and bacterial diseases” (Adjutec Pharma AS, priority 2016, dated 2024).
Where two headings read alike, the source gives them in different places. Marks after values point to notes of the source that are not given here.

How the values were obtained:
[1] = test system: human acute myeloid leukemia cell line MOLM-13; test: Cytotoxicity, WST-1 and nuclear morphology (Example 73); type: cell-based
Experimental: (§1) All cell culturing media and serum were from Sigma-Aldrich (St. Louis, Mo., USA). Product Nos. are given in parentheses. The human acute myeloid leukemia cell line MOLM-13 was cultured in RPMI medium (R5886) enriched with […] (F7524) and 0.2 mM L-glutamine (G7513). The normal rat kidney epithelial (NRK) and the rat cardiomyoblast (H9c2) cells were cultured in DMEM medium (D6429) enriched with 10% fetal bovine serum (F7524). All cell lines were additionally supplemented with 100 IU/mL penicillin and […] (P0781). The cells were cultured in a humidified atmosphere either under 2% or 20% O2 at 37° C.
(§2) All analogues were dissolved in DMSO (D5879, Sigma-Aldrich) at concentrations between 2.5 and 20 mM before testing. For cytotoxic testing, the MOLM-13 cells were seeded as 20,000 cells/well, while NRK and H9c2 cells were seeded as 5,000 cells/well in 96-well Microplates (#167008, Thermo Scientific™ Nunc™ MicroWell™) with 100 μL medium/well. The cells were exposed to various concentrations of iodinin or its analogues for 24 hrs before the cell proliferation reagent WST-1 was used to assess the viability, in accordance with the manufacturer's instructions (11644807001, Roche Diagnostics, Sigma-Aldrich). The cells were next fixed in 2% buffered formaldehyde (pH 7.4) with the DNA-specific dye Hoechst 33342 (Polysciences Inc.) and assessed for cell death by UV-microscopy based on nuclear morphology. The highest concentration of analogue corresponded to 1% of DMSO, which alone gave less than 7% cell death as judged by nuclear morphology.
(§3) EC50 values were determined by analyses of WST-1 signal results as well as microscopic evaluation of cell death by four-parameter regression analyses using the SigmaPlot software (Systat Software inc. San Jose, Calif.):
(§4) [formula] where Y is the response (WST-1 signal or percent apoptosis), min and max are minimum and maximum response, X is concentration of analogue, EC50 equals the point of inflection, i.e. the point that gives half of maximum response, and h is the Hill's slope of the curve. The two methods gave consistent response curves for each analogue. In the case of Tirapazamine, where its colour interfered with the WST-1 signal, only microscopic evaluation of Hoechst stained cells was used in order to calculate its EC50 values.

[2] = Parallel artificial membrane permeability assay (PAMPA); settings: for Permeability: PAMPA class by ranges of Bennion et al.; for LogPeff: PAMPA
Experimental: The Corning Gentest™ pre-Coated parallel artificial membrane permeability assay PAMPA Plate System was from Cording Discovery Labware (Bedford, USA). The compounds were tested in room temperature at 50 μM using PBS as buffer. A total of 300 μl of the compound solution was added to each well of the donor plate, and 200 μl of PBS was added to the receiver filter plate. After incubation for five hours, 50 μl of the donor or acceptor well were injected into a reversed phase HPLC column (Kromasil 100-5 C18 150-4.6 mm, Akzo Nobel, Sweden) connected to a Merck-Hitachi LaChrome HPLC-system (VWR, WestChester, USA) with a L-7455 diode array detector. Mobile phase A was 0.05% aqueous TFA, and mobile phase B was acetonitrile. The flow rate was 1.6 ml/min and compounds eluted between 1 and 4.5 minutes was eluted during a 6.5 min gradient from 90:10% mobile phase A:B to 0:100% mobile phase A:B. The ratio of the compound concentrations in the donor and acceptor compartment was calculated after integration of the peaks at 285 nm. Peff was calculated as described in [Bennion B J, Be N A, McNerney M W, Lao V, Carlson E M, Valdez C A, et al. Predicting a Drug's Membrane Permeability: A Computational Model Validated With in Vitro Permeability Assay Data. The journal of physical chemistry B. 2017; 121(20):5228-37.]. Membrane permeability were classified by the range defined by Bennion et al., allowing for us to divide the compounds into four groups, compounds with high permeability (LogPeff>−5.33), intermediate permeability (LogPeff>−5.66 and <−5.33), low permeability (LogPeff>−6.14 and <−5.66) impermeable (LogPeff<−6.14).

Molm13 cells = test: Anti-AML activity, WST-1 viability (Example 72); type: cell-based; settings: Homo sapiens
Experimental: Dry powder of analogs were dissolved in DMSO. IPC-18 rat AML cells (Lacaze, N. et al. Leuk. Res. 1983, 7, 145.) were cultured in DMEM medium (Sigma-Aldrich, St. Louis, Mo., USA) supplemented with 10% horse serum (Invitrogen, Carlsbad, Calif., USA), and antibiotics (50 U/mL of penicillin and 0.05 mg/mL streptomycin). Molm13 (Matsuo, Y. et al. Leukemia 1997, 11, 1469.) cells were cultured in RPMI supplemented with antibiotics (50 U/mL of penicillin and 0.05 mg/mL streptomycin) and 10% fetal bovine serum (FBS, Invitrogen, Carlsbad, Calif.) and kept in exponential growth before the experiments. Dilution series of iodinin analogs were added to medium and cell suspension added to reach a final cell concentration of 150 000 cells/ml in 0.1 mL in a 96 well tissue culture plate. […] The cells were incubated with the iodinin analogs for 22 h before WST-1 was added according to the manufacturers protocol, and the cells incubated further in 2 h. Mitochondrial conversion of WST-1 to its colored metabolite was measured by a plate reader at 450 nm, with 620 nm as the reference wavelength. The cells were next fixed by adding 4% buffered formaldehyde (PBS, pH 7.4, supplemented with 0.01 mg/mL Hoechst 33342 for nuclear visualization) to the cell suspension at 1:1 (v/v) ratio (final concentration of formaldehyde:[…]). The cells' nuclear and surface morphology were examined microscopically and results compared with the WST-1 viability assay. The results given in Table I are based on WST-1 data.

[3] = test system: rat cardiomyoblast (H9c2) cells; test: Cytotoxicity, WST-1 and nuclear morphology (Example 73); type: cell-based; settings: H9c2, 19% O2, 24 hours of incubation, read-out: EC50 (μM) H9c2 19% O2
Experimental: as §1, §2, §3, §4

[4] = test system: normal rat kidney epithelial (NRK) cells; test: as above; type: cell-based
Experimental: as §1, §2, §3, §4

hepG2 = test: Cytotoxicity (Example 73, Table 2); type: cell-based; settings: Homo sapiens, HepG2, 24 h, read-out: EC50 (μM) hepG2
[5] = Homo sapiens, MOLM-13, 2% O2, 24 hours of incubation, read-out: EC50 (μM) MOLM-13 2% O2
[6] = Homo sapiens, MOLM-13, 19% O2, 24 hours of incubation, read-out: EC50 (μM) MOLM-13 19% O2
[7] = 50 μM in PBS, room temperature, five hours
[8] = Molm 13 cells, 2% O2, 24 h of incubation, WST-1, read-out: Molm 13 IC50 2% O2
[9] = Molm 13 cells, 20% O2, 24 h of incubation, WST-1, read-out: Molm 13 IC50 20% O2
[10] = Rattus norvegicus, 2% O2, 24 hours of incubation, read-out: EC50 (μM) NRK 2% O2
[11] = Rattus norvegicus, 19% O2, 24 hours of incubation, read-out: EC50 (μM) NRK 19% O2
[12] = MOLM-13, 2% O2, 24 hours of incubation, read-out: EC50 (μM) MOLM-13 2% O2
[13] = MOLM-13, 19% O2, 24 hours of incubation, read-out: EC50 (μM) MOLM-13 19% O2
[14] = Rattus norvegicus, 24 h, read-out: EC50 (μM) NRK 2% O2, NRK, 2% O2, 24 hours of incubation
[15] = Rattus norvegicus, 24 h, read-out: EC50 (μM) NRK 19% O2, NRK, 19% O2, 24 hours of incubation

SMILES	EC50 [1, 5] [µM]	EC50 [1, 6] [µM]	LogPeff [2, 7]	IC50 (Molm13 cells; [9]) [µM]	EC50 ([3]; Rattus norvegicus) [µM]	EC50 [1, 12] [µM]	EC50 [1, 13] [µM]	EC50 [3] [µM]	EC50 [4, 14] [µM]	other results
Oc1cccc2nc3c(O)cccc3nc12 [Example 1b, 1,6-dihydroxyphenazine]	110 to 140	100 to 120	−5.42	–	–	–	–	–	–	Permeability [2]: Intermediate/high
CCOC(=O)COc1cccc2c1[n+]([O-])c1cccc(O)c1[n+]2[O-] [Example 5c, 1-(2-(ethoxy)-2-oxoethoxy)-6-hydroxyphenazine 5,10-dioxide]	0.49 ± 0.12	0.57 ± 0.06	−4.70	0.85	15 ± 0.9	–	–	–	–	IC50 (Molm13 cells; [8]): 0.65 µM; EC50 [4, 10]: 18 ± 1.5 µM; EC50 [4, 11]: 11 ± 1.6 µM
O=C(O)COc1cccc2c1[n+]([O-])c1cccc(O)c1[n+]2[O-] [Example 7, 1-(carboxymethoxy)-6-hydroxyphenazine 5,10-dioxide]	61 ± 4	54 ± 7	−7.53	–	–	–	–	–	–	–
CN1CCN(C(=O)Oc2cccc3c2[n+]([O-])c2cccc(O)c2[n+]3[O-])CC1 [Example 8a, 1-hydroxy-6-((4-methylpiperazine-1-carbonyl)oxy)phenazine 5,10-dioxide]	–	–	–	–	–	1.4 ± 0.06	1.5 ± 0.16	100 ± 13	59 ± 1.1	EC50 (hepG2): 30 µM; EC50 [4, 15]: 53 ± 2 µM
Cc1cc2c(cc1C)[n+]([O-])c1c(OC(=O)N3CCN(C)CC3)cccc1[n+]2[O-] [Example 8d, 7,8-dimethyl-1-((4-methylpiperazine-1-carbonyl)oxy)phenazine 5,10-dioxide]	–	–	–	–	–	0.54 ± 0.06	0.63 ± 0.05	9.4 ± 0.55	13 ± 0.7	EC50 (hepG2): 105 µM; EC50 [4, 15]: 11 ± 1.5 µM
CN(C)C(=O)Oc1cccc2c1[n+]([O-])c1ccccc1[n+]2[O-] [Example 8k, 1-((dimethylcarbamoyl)oxy)phenazine 5,10-dioxide]	–	–	–	–	–	2.1 ± 0.16	1.3 ± 0.15	16 ± 2.6	25 ± 0.6	IC50 (Molm13 cells; MOLM-13, 24 h, read-out: Molm 13 IC50 20% O2): 0.32 µM; EC50 [4, 15]: 19 ± 1.3 µM
CCCCC(=O)Oc1cccc2c1[n+]([O-])c1cccc(OC(=O)CCCC)c1[n+]2[O-] [Example 16b, 1,6-bis(pentanoyloxy)phenazine 5,10-dioxide]	22 ± 2.8	36 ± 0.1	−8.66	~40	> 200	–	–	–	–	–
CCOC(=O)COc1cccc2c1[n+]([O-])c1cccc(OCC(=O)OCC)c1[n+]2[O-] [Example 16c, 1,6-bis(2-ethoxy-2-oxoethoxy)phenazine 5,10-dioxide]	0.79 ± 0.06	2 ± 0.47	–	4.11	> 20	–	–	–	–	IC50 (Molm13 cells; [8]): 3.98 µM; EC50 [4, 10]: > 20 µM; EC50 [4, 11]: > 20 µM
CC(C)(C)C(=O)Oc1cccc2c1[n+]([O-])c1cccc(OC(=O)C(C)(C)C)c1[n+]2[O-] [Example 16d, 1,6-bis(pivaloyloxy)phenazine 5,10-dioxide]	8.9 ± 1.71	11 ± 0.7	−5.86*	4.05	> 50	–	–	–	–	IC50 (Molm13 cells; [8]): 5.59 µM
CCOC(=O)Oc1cccc2c1[n+]([O-])c1cccc(OC(=O)OCC)c1[n+]2[O-] [Example 16e, 1,6-bis((ethoxycarbonyl)oxy)phenazine 5,10-dioxide]	4 ± 0.33	6.1 ± 0.05	–	2.23	> 25	–	–	–	–	IC50 (Molm13 cells; [8]): 3.5 µM; EC50 [4, 10]: > 25 µM; EC50 [4, 11]: > 25 µM
CCN(CC)C(=O)COc1cccc2c1[n+]([O-])c1cc(C)c(C)cc1[n+]2[O-] [Example 50, 1-(2-(diethylamino)-2-oxoethoxy)-7,8-dimethylphenazine 5,10-dioxide]	3.4 ± 0.78	1.8 ± 0.24	−5.42	–	41 ± 5.7	–	–	–	–	EC50 [4, 10]: 52 ± 1.2 µM; EC50 [4, 11]: 21 ± 0.3 µM; Permeability [2]: Intermediate/high
Cc1cc2c(cc1C)[n+]([O-])c1c(OC(=O)N3CCCC3)cccc1[n+]2[O-] [Example 52, 7,8-dimethyl-1-((pyrrolidine-1-carbonyl)oxy)phenazine 5,10-dioxide]	–	–	−5.32	–	–	0.78 ± 0.11	1.5 ± 0.02	8.7 ± 1.2	8.9	EC50 [4, 15]: 6.6 ± 0.04 µM
[O-][n+]1c2cc3ccccc3cc2[n+]([O-])c2c(O)cccc21 [Example 70, 1-hydroxybenzo[b]phenazine 5,12-dioxide]	–	–	−8.04	–	–	–	–	–	–	–
CN1CCN(C(=O)Oc2cccc3c2[n+]([O-])c2cc4ccccc4cc2[n+]3[O-])CC1 [Example 71, 1-((4-methylpiperazine-1-carbonyl)oxy)benzo[b]phenazine 5,12-dioxide]	–	–	−5.43	–	–	1.8 ± 0.1	2.8 ± 0.18	2.3 ± 0.05	7.5 ± 0.38	EC50 ([4]; read-out: EC50 (μM) NRK 19% O2, 19% O2, 24 hours of incubation): 2 ± 0.06 µM; Permeability [2]: Intermediate/high
Nc1n[n+]([O-])c2ccccc2[n+]1[O-] [Tirapazamine, reference compound]	–	–	–	–	–	–	–	–	–	LogPeff ([2]; 5 h, 50 μM): −5.79
